Test results reported in patent US20140005163A1 (NOVARTIS AG, priority 2010, published 2014).
pIC50: −log10 of the molar value.

Key:
[1] = system: PKB Ser473 phosphorylation in Rat1-myr-HA-p110 alpha cells; assay: Reverse protein array assay, PKB Ser473 phosphorylation in Rat1-myr-p110 alpha cells; format: cell-based; details: 0.5 h, pAkt Ser473, 30 minutes compound incubation, read-out: p-PKB IC50
Method in brief: (§1)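 Measured: PKB Ser473 phosphorylation by reverse protein array in Rat1 cells expressing myr-HA-p110 alpha, beta or delta, after 30 min compound treatment at 37 °C with 0.2% DMSO vehicle.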

PI3K alpha = biological target: T1, PI3K alpha (Homo sapiens, UniProt P42336); assay: PI3K alpha kinase assay (Kinase-Glo luminescence); format: biochemical
T1 construct: p85(iSH2) fusion partner (see partner chain) (N); His tag (C); made in house; host or cells: baculovirus; Tn5 (Trichoplusia ni) or TiniPro insect cells
Method in brief: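 IC50 is taken from a four-parameter logistic fit of 8-point dilutions, with Kinase-Glo luminescence reporting residual ATP. Reactions ran 60 min at room temperature in TRIS pH 7.5 buffer with MgCl2, NaCl, CHAPS and DTT. Final levels were 10 nM enzyme, 1 μM ATP and 10 μg/mL PI.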

[2] = system: S6 Ribosomal Protein phosphorylation Ser235/236 in TSC1 null mouse embryo fibroblast (MEF) cells; assay: Reverse protein array assay, S6 Ribosomal Protein phosphorylation Ser235/236 in TSC1 null MEF cells; format: cell-based; details: 1 h, pS6 ribosomal protein Ser235/236, 60 minutes incubation, read-out: p-S6 IC50
Method in brief: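 TSC1−/− MEFs, seeded and held ≥20 h at 37 °C/5% CO2, were exposed to 8-step serial compound dilutions (0.02% DMSO final; DMSO vehicle control) for 60 min at 37 °C. Cells were then lysed on ice for 10 min and lysates spotted onto reverse protein array chips.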

[3] = system: PKB Ser473 phosphorylation in Rat1-myr-HA-p110 beta cells; assay: Reverse protein array assay, PKB Ser473 phosphorylation in Rat1-myr-p110 beta cells; format: cell-based; details: 0.5 h, pAkt Ser473, 30 minutes incubation, read-out: p-PKB IC50
Method in brief: as §1

T1 sequence (P42336 with tags, fused parts or gaps limits assumed): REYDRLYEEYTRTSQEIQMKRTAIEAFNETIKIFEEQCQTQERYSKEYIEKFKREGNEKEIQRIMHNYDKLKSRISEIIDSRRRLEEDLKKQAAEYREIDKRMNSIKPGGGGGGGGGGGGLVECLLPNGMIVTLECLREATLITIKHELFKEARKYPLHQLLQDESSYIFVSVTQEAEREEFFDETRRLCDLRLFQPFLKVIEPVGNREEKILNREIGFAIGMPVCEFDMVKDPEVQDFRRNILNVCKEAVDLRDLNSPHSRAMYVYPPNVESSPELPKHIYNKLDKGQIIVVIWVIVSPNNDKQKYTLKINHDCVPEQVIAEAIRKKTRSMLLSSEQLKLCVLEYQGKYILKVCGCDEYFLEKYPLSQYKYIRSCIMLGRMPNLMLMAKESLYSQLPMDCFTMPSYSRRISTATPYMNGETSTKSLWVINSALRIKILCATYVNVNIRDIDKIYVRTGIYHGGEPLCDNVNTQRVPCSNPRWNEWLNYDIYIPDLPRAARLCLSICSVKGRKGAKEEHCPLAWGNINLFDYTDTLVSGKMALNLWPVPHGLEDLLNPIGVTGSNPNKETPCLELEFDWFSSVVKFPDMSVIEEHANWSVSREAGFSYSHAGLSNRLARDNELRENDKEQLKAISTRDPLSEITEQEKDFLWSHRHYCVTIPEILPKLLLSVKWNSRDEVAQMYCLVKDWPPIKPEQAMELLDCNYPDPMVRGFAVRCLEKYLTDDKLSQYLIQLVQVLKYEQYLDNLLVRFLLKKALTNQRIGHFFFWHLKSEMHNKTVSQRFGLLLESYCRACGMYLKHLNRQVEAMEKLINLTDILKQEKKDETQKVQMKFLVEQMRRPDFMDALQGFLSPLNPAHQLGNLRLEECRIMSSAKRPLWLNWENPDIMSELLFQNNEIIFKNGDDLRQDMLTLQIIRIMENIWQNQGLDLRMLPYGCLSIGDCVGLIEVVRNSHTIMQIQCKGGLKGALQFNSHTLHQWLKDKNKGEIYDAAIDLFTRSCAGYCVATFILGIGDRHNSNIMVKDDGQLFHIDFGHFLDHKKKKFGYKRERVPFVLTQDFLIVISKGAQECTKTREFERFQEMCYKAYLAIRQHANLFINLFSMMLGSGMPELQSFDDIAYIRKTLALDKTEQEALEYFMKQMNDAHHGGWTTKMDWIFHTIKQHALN

SMILES | pIC50 [1] | pIC50 (PI3K alpha) | pIC50 [3] | pIC50 [2]
CCOc1ccc(-c2ccc3ncc4c(c3c2)n(-c2cn(CC(=O)N3CCOCC3)nc2C)c(=O)n4C)cn1 [Example 3.10, 8-(6-Ethoxy-pyridin-3-yl)-3-methyl-1-[3-methyl-1-(2-morpholin-4-yl-2-oxo-ethyl)-1H-pyrazol-4-yl]-1,3-dihydro-imidazo[4,5-c]quinolin-2-one] | 7.23 | 7.04 | 7.15 | 8.00
COc1ncc(-c2ccc3ncc4c(c3c2)n(-c2cn(C)nc2Cl)c(=O)n4C)cn1 [Example 17.3, 1-(3-Chloro-1-methyl-1H-pyrazol-4-yl)-8-(2-methoxy-pyrimidin-5-yl)-3-methyl-1,3-dihydro-imidazo[4,5-c]quinolin-2-one] | 7.68 | 8.05 | 7.66 | 8.52
Cc1nn(C)c(C)c1-n1c(=O)n(C)c2cnc3ccc(-c4cccc(O)c4)cc3c21 [Example 32.2, 8-(3-Hydroxy-phenyl)-3-methyl-1-(1,3,5-trimethyl-1H-pyrazol-4-yl)-1,3-dihydro-imidazo[4,5-c]quinolin-2-one] | 6.66 | 7.52 | 6.14 | 6.25
Cc1nn(C(C)C)cc1-n1c(=O)n(C)c2cnc3ccc(-c4ccc(N5CCC5)nc4)cc3c21 [Example 5.2, 8-(6-Azetidin-1-yl-pyridin-3-yl)-1-(1-isopropyl-3-methyl-1H-pyrazol-4-yl)-3-methyl-1,3-dihydro-imidazo[4,5-c]quinolin-2-one] | 7.85 | 7.47 | 7.66 | 8.30
CCNc1cc(-c2ccc3ncc4c(c3c2)n(-c2c(C)nn(CCO)c2C)c(=O)n4C)cnc1C [Example 210, 8-(5-Ethylamino-6-methyl-pyridin-3-yl)-1-[1-(2-hydroxy-ethyl)-3,5-dimethyl-1H-pyrazol-4-yl]-3-methyl-1,3-dihydro-imidazo[4,5-c]quinolin-2-one] | 7.24 | 7.62 | 7.66 | 7.49
CNc1ncc(-c2ccc3ncc4c(c3c2)n(-c2cn(C)nc2C)c(=O)n4C)cc1C(F)(F)F [Example 144.3, 1-(1,3-Dimethyl-1H-pyrazol-4-yl)-3-methyl-8-(6-methylamino-5-trifluoromethyl-pyridin-3-yl)-1,3-dihydro-imidazo[4,5-c]quinolin-2-one] | > 8.30 | 8.00 | > 8.30 | > 9.30
COc1ccc(-c2ccc3ncc4c(c3c2)n(-c2cn(CCO)nc2C)c(=O)n4C)cn1 [Example 103.1, 1-[1-(2-Hydroxy-ethyl)-3-methyl-1H-pyrazol-4-yl]-8-(6-methoxy-pyridin-3-yl)-3-methyl-1,3-dihydro-imidazo[4,5-c]quinolin-2-one] | 7.33 | 7.70 | 7.52 | 7.89
CCn1cc(-n2c(=O)n(C)c3cnc4ccc(-c5cnc(NC)c(Cl)c5)cc4c32)c(C)n1 [Example 146.2, 8-(5-Chloro-6-methylamino-pyridin-3-yl)-1-(1-ethyl-3-methyl-1H-pyrazol-4-yl)-3-methyl-1,3-dihydro-imidazo[4,5-c]quinolin-2-one] | > 8.30 | 6.92 | 7.96 | 8.70
CCn1c(=O)n(-c2cn(C)nc2C)c2c3nc(-c4ccc(OC)c(OC)c4)ccc3ncc21 [Example 251, 8-(3,4-Dimethoxy-phenyl)-1-(1,3-dimethyl-1H-pyrazol-4-yl)-3-ethyl-1,3-dihydro-1,3,5,9-tetraaza-cyclopenta[a]naphthalen-2-one] | 7.49 | 7.55 | 7.19 | 7.48
CCN(CC)C(=O)Cn1cc(-n2c(=O)n(C)c3cnc4ccc(-c5ccc(C)nc5)cc4c32)c(C)n1 [Example 139, N,N-Diethyl-2-{3-methyl-4-[3-methyl-8-(6-methyl-pyridin-3-yl)-2-oxo-2,3-dihydro-imidazo[4,5-c]quinolin-1-yl]-pyrazol-1-yl}-acetamide] | 7.28 | 7.77 | 7.41 | 8.40

The next lines start with results.

pIC50 [1] | pIC50 (PI3K alpha) | pIC50 [3] | SMILES | pIC50 [2]
6.90 | 7.74 | 6.58 | COCCOc1cncc(-c2ccc3ncc4c(c3c2)n(-c2cn(C)nc2C)c(=O)n4C)c1 [Example 59.1, 1-(1,3-Dimethyl-1H-pyrazol-4-yl)-8-[5-(2-methoxy-ethoxy)-pyridin-3-yl]-3-methyl-1,3-dihydro-imidazo[4,5-c]quinolin-2-one] | 8.22
7.85 | 7.85 | 7.46 | Cc1ccc(-c2ccc3ncc4c(c3c2)n(-c2cn(C)nc2C)c(=O)n4C)cn1 [Example 7.2, 1-(1,3-Dimethyl-1H-pyrazol-4-yl)-3-methyl-8-(6-methyl-pyridin-3-yl)-1,3-dihydro-imidazo[4,5-c]quinolin-2-one] | 7.87
> 8.30 | 8.05 | > 8.30 | CCNc1cc(-c2ccc3ncc4c(c3c2)n(-c2cn(C)nc2C)c(=O)n4C)cnc1CC [Example 161, 1-(1,3-Dimethyl-1H-pyrazol-4-yl)-8-(6-ethyl-5-ethylamino-pyridin-3-yl)-3-methyl-1,3-dihydro-imidazo[4,5-c]quinolin-2-one] | 8.70
7.49 | 7.66 | 7.33 | Cc1nn(C)cc1-n1c(=O)n(C)c2cnc3ccc(-c4cnc(N(C)C)nc4)cc3c21 [Example 6.2, 8-(2-Dimethylamino-pyrimidin-5-yl)-1-(1,3-dimethyl-1H-pyrazol-4-yl)-3-methyl-1,3-dihydro-imidazo[4,5-c]quinolin-2-one] | 8.10
7.80 | 8.40 | 7.54 | CCOc1cncc(-c2ccc3ncc4c(c3c2)n(-c2cn(C)nc2C)c(=O)n4C)c1 [Example 56.1, 1-(1,3-Dimethyl-1H-pyrazol-4-yl)-8-(5-ethoxy-pyridin-3-yl)-3-methyl-1,3-dihydro-imidazo[4,5-c]quinolin-2-one] | 8.40
7.80 | 7.92 | 7.32 | Cc1nn(C(C)C)cc1-n1c(=O)n(C)c2cnc3ccc(-c4cncc(C(C)(C)O)c4)cc3c21 [Example 215.1, 8-[5-(1-Hydroxy-1-methyl-ethyl)-pyridin-3-yl]-1-(1-isopropyl-3-methyl-1H-pyrazol-4-yl)-3-methyl-1,3-dihydro-imidazo[4,5-c]quinolin-2-one] | 7.41
7.66 | 8.05 | 7.27 | CCOCc1cc(-c2ccc3ncc4c(c3c2)n(-c2cn(C)nc2C)c(=O)n4C)cnc1N [Example 166.1, 8-(6-Amino-5-ethoxymethyl-pyridin-3-yl)-1-(1,3-dimethyl-1H-pyrazol-4-yl)-3-methyl-1,3-dihydro-imidazo[4,5-c]quinolin-2-one] | 8.52
8.15 | 7.47 | 8.10 | CNc1cc(-c2ccc3ncc4c(c3c2)n(-c2cn(C)nc2C)c(=O)n4C)cnc1COC [Example 159, 1-(1,3-Dimethyl-1H-pyrazol-4-yl)-8-(6-methoxymethyl-5-methylamino-pyridin-3-yl)-3-methyl-1,3-dihydro-imidazo[4,5-c]quinolin-2-one] | 8.10
7.22 | 7.85 | 7.10 | Cc1nn(C)cc1-n1c(=O)n(C)c2cnc3ccc(-c4cncc(N)c4)cc3c21 [Example 45.1, 8-(5-Amino-pyridin-3-yl)-1-(1,3-dimethyl-1H-pyrazol-4-yl)-3-methyl-1,3-dihydro-imidazo[4,5-c]quinolin-2-one] | 7.36
8.30 | 8.40 | 7.80 | COc1cc(-c2ccc3ncc4c(c3c2)n(-c2cn(C)nc2C)c(=O)n4C)cnc1C [Example 184, 1-(1,3-Dimethyl-1H-pyrazol-4-yl)-8-(5-methoxy-6-methyl-pyridin-3-yl)-3-methyl-1,3-dihydro-imidazo[4,5-c]quinolin-2-one] | 8.30
7.43 | 8.10 | 7.42 | COc1cncc(-c2ccc3ncc4c(c3c2)n(-c2cn(C)nc2C)c(=O)n4C)c1 [Example 12, 1-(1,3-Dimethyl-1H-pyrazol-4-yl)-8-(5-methoxy-pyridin-3-yl)-3-methyl-1,3-dihydro-imidazo[4,5-c]quinolin-2-one] | 8.15
7.62 | 7.68 | 7.70 | CCOc1ccc(-c2ccc3ncc4c(c3c2)n(-c2cn(C)nc2C)c(=O)n4C)cn1 [Example 3.1, 1-(1,3-Dimethyl-1H-pyrazol-4-yl)-8-(6-ethoxy-pyridin-3-yl)-3-methyl-1,3-dihydro-imidazo[4,5-c]quinolin-2-one] | 7.40
7.64 | 7.47 | 7.40 | CCOc1cc(-c2ccc3ncc4c(c3c2)n(-c2cn(C)nc2C)c(=O)n4C)cnc1COC [Example 197.1, 1-(1,3-Dimethyl-1H-pyrazol-4-yl)-8-(5-ethoxy-6-methoxymethyl-pyridin-3-yl)-3-methyl-1,3-dihydro-imidazo[4,5-c]quinolin-2-one] | 8.15
